# From ChEMBL document CHEMBL1201862, “PubChem BioAssay data set” (2004)
#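 Values below derive from 48-hour exposures of cells grown in 96-well plates, with endpoints linearly interpolated between the two concentrations bracketing the appropriate inhibition level. GI50 = concentration required for 50% inhibition of growth.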 Active and inactive are the calls of the source. Cut-off read from the data, not from the text of the source: active = GI50 up to about 1.1 µM and inactive = higher.
# Experiments:
# Experiment in all cases: NCI tumour cell line growth inhibition, 48 h
# RXF 393 = test system: RXF 393
# OVCAR-8 = test system: OVCAR-8
# T47D = test system: T47D
# MOLT-4 = test system: MOLT-4
# UACC-62 = test system: UACC-62
# HCT-116 = test system: HCT-116
# NCI-H522 = test system: NCI-H522
# MDA-MB-435 = test system: MDA-MB-435
# HOP-92 = test system: HOP-92
# SK-MEL-5 = test system: SK-MEL-5
# OVCAR-5 = test system: OVCAR-5
# COLO 205 = test system: COLO 205
# OVCAR-3 = test system: OVCAR-3
# U-251 = test system: U-251
# UO-31 = test system: UO-31
# NCI-H226 = test system: NCI-H226
# Hs-578T = test system: Hs-578T
# CAKI-1 = test system: CAKI-1
# SW-620 = test system: SW-620
# HT-29 = test system: HT-29
# NCI-H23 = test system: NCI-H23
# A549 = test system: A549
# IGROV-1 = test system: IGROV-1
# LOX IMVI = test system: LOX IMVI
# ACHN = test system: ACHN
# SK-OV-3 = test system: SK-OV-3
# KM12 = test system: KM12
# CCRF-CEM = test system: CCRF-CEM
# A498 = test system: A498
# Malme-3M = test system: Malme-3M
# SNB-75 = test system: SNB-75
# MDA-MB-231 = test system: MDA-MB-231
# MDA-N = test system: MDA-N
# NCI/ADR-RES = test system: NCI/ADR-RES
# SK-MEL-28 = test system: SK-MEL-28
# DU-145 = test system: DU-145
# RPMI-8226 = test system: RPMI-8226
# HL-60 = test system: HL-60
# SK-MEL-2 = test system: SK-MEL-2
# HCT-15 = test system: HCT-15
# PC-3 = test system: PC-3
# 786-0 = test system: 786-0
# M14 = test system: M14
# UACC-257 = test system: UACC-257
# HOP-62 = test system: HOP-62
# SF-268 = test system: SF-268
# BT-549 = test system: BT-549
# SN12C = test system: SN12C
# MCF7 = test system: MCF7
# EKVX = test system: EKVX
# NCI-H460 = test system: NCI-H460
# SF-295 = test system: SF-295
# SR = test system: SR
# SF-539 = test system: SF-539
# TK-10 = test system: TK-10
# K562 = test system: K562
# OVCAR-4 = test system: OVCAR-4
# SNB-19 = test system: SNB-19
compound,measurement,setting,value
CCCC(=O)OCC1OC(n2cc(F)c(=O)[nH]c2=O)C(F)C1OC(=O)CCC (stereo not given),GI50,RXF 393,54.7 µM (inactive)
same,GI50,OVCAR-8,19.6 µM (inactive)
same,GI50,T47D,> 100 µM (inactive)
same,GI50,MOLT-4,> 100 µM (inactive)
same,GI50,UACC-62,25.9 µM (inactive)
same,GI50,HCT-116,21.5 µM (inactive)
same,GI50,NCI-H522,> 100 µM (inactive)
same,GI50,MDA-MB-435,51.5 µM (inactive)
same,GI50,HOP-92,17.4 µM (inactive)
same,GI50,SK-MEL-5,36.8 µM (inactive)
same,GI50,OVCAR-5,96.6 µM (inactive)
same,GI50,COLO 205,36.4 µM (inactive)
same,GI50,OVCAR-3,41.5 µM (inactive)
same,GI50,U-251,10.9 µM (inactive)
same,GI50,UO-31,69.7 µM (inactive)
same,GI50,NCI-H226,> 100 µM (inactive)
same,GI50,Hs-578T,26.5 µM (inactive)
same,GI50,CAKI-1,23.1 µM (inactive)
same,GI50,SW-620,53.6 µM (inactive)
same,GI50,HT-29,45.4 µM (inactive)
same,GI50,NCI-H23,35.7 µM (inactive)
same,GI50,A549,10.1 µM (inactive)
same,GI50,IGROV-1,58.6 µM (inactive)
same,GI50,LOX IMVI,47.8 µM (inactive)
same,GI50,ACHN,25.6 µM (inactive)
same,GI50,SK-OV-3,> 100 µM (inactive)
same,GI50,KM12,> 100 µM (inactive)
same,GI50,CCRF-CEM,7.64 µM (inactive)
same,GI50,A498,6.38 µM (inactive)
same,GI50,Malme-3M,36.6 µM (inactive)
same,GI50,SNB-75,43.5 µM (inactive)
same,GI50,MDA-MB-231,> 100 µM (inactive)
same,GI50,MDA-N,> 100 µM (inactive)
same,GI50,NCI/ADR-RES,7.48 µM (inactive)
same,GI50,SK-MEL-28,> 100 µM (inactive)
same,GI50,DU-145,15.3 µM (inactive)
same,GI50,RPMI-8226,9.31 µM (inactive)
same,GI50,HL-60,> 100 µM (inactive)
same,GI50,SK-MEL-2,> 100 µM (inactive)
same,GI50,HCT-15,> 100 µM
same,GI50,PC-3,> 100 µM (inactive)
same,GI50,786-0,18.2 µM (inactive)
same,GI50,M14,36.3 µM (inactive)
same,GI50,UACC-257,85.7 µM (inactive)
same,GI50,HOP-62,4.11 µM (inactive)
same,GI50,SF-268,8.53 µM (inactive)
same,GI50,BT-549,13.9 µM (inactive)
same,GI50,SN12C,19.2 µM (inactive)
same,GI50,MCF7,0.6 µM (active)
same,GI50,EKVX,50 µM (inactive)
same,GI50,NCI-H460,3.78 µM (inactive)
same,GI50,SF-295,49.2 µM (inactive)
same,GI50,SR,9.73 µM (inactive)
same,GI50,SF-539,1.63 µM (inactive)
same,GI50,TK-10,49.3 µM (inactive)
same,GI50,K562,56.1 µM (inactive)
same,GI50,OVCAR-4,5.61 µM (inactive)
c1ccc2c(CC3NCCN3)cccc2c1,GI50,RXF 393,> 100 µM (inactive)
same,GI50,OVCAR-8,> 100 µM (inactive)
same,GI50,T47D,> 100 µM (inactive)
same,GI50,MOLT-4,> 100 µM (inactive)
same,GI50,UACC-62,> 100 µM (inactive)
same,GI50,HCT-116,> 100 µM (inactive)
same,GI50,NCI-H522,> 100 µM (inactive)
same,GI50,MDA-MB-435,> 100 µM (inactive)
same,GI50,HOP-92,46 µM (inactive)
same,GI50,SK-MEL-5,> 100 µM (inactive)
same,GI50,OVCAR-5,> 100 µM (inactive)
same,GI50,COLO 205,> 100 µM (inactive)
same,GI50,OVCAR-3,> 100 µM (inactive)
same,GI50,U-251,> 100 µM (inactive)
same,GI50,NCI-H226,> 100 µM (inactive)
same,GI50,Hs-578T,> 100 µM (inactive)
same,GI50,CAKI-1,> 100 µM (inactive)
same,GI50,SW-620,> 100 µM (inactive)
same,GI50,HT-29,> 100 µM (inactive)
same,GI50,NCI-H23,> 100 µM (inactive)
same,GI50,A549,> 100 µM (inactive)
same,GI50,IGROV-1,> 100 µM (inactive)
same,GI50,LOX IMVI,> 100 µM (inactive)
same,GI50,ACHN,> 100 µM (inactive)
same,GI50,SK-OV-3,> 100 µM (inactive)
same,GI50,KM12,> 100 µM (inactive)
same,GI50,CCRF-CEM,> 100 µM (inactive)
same,GI50,SNB-19,> 100 µM (inactive)
same,GI50,A498,> 100 µM (inactive)
same,GI50,Malme-3M,> 100 µM (inactive)
same,GI50,SNB-75,> 100 µM (inactive)
same,GI50,MDA-MB-231,> 100 µM (inactive)
same,GI50,MDA-N,> 100 µM (inactive)
same,GI50,NCI/ADR-RES,> 100 µM (inactive)
same,GI50,SK-MEL-28,> 100 µM (inactive)
same,GI50,DU-145,> 100 µM (inactive)
same,GI50,RPMI-8226,> 100 µM (inactive)
same,GI50,HL-60,> 100 µM (inactive)
same,GI50,SK-MEL-2,> 100 µM (inactive)
same,GI50,HCT-15,> 100 µM
same,GI50,PC-3,> 100 µM (inactive)
same,GI50,786-0,> 100 µM (inactive)
same,GI50,M14,> 100 µM (inactive)
same,GI50,UACC-257,> 100 µM (inactive)
same,GI50,HOP-62,> 100 µM (inactive)
same,GI50,SF-268,> 100 µM (inactive)
same,GI50,BT-549,> 100 µM (inactive)
same,GI50,SN12C,> 100 µM (inactive)
same,GI50,MCF7,> 100 µM (inactive)
same,GI50,EKVX,> 100 µM (inactive)
same,GI50,NCI-H460,> 100 µM (inactive)
same,GI50,SF-295,> 100 µM (inactive)
same,GI50,SR,> 100 µM (inactive)
same,GI50,SF-539,> 100 µM (inactive)
same,GI50,TK-10,> 100 µM (inactive)
same,GI50,K562,> 100 µM (inactive)
same,GI50,OVCAR-4,> 100 µM (inactive)
O=C(CSc1nc2ccccc2s1)c1sc2sc3ccccc3[n+]2c1[O-],GI50,RXF 393,> 100 µM (inactive)
same,GI50,OVCAR-8,> 100 µM (inactive)
same,GI50,T47D,> 100 µM (inactive)
same,GI50,MOLT-4,> 100 µM (inactive)
same,GI50,UACC-62,> 100 µM (inactive)
same,GI50,HCT-116,> 100 µM (inactive)
same,GI50,NCI-H522,> 100 µM (inactive)
same,GI50,MDA-MB-435,> 100 µM (inactive)
same,GI50,HOP-92,> 100 µM (inactive)
same,GI50,SK-MEL-5,> 100 µM (inactive)
same,GI50,OVCAR-5,> 100 µM (inactive)
same,GI50,COLO 205,> 100 µM (inactive)
same,GI50,OVCAR-3,> 100 µM (inactive)
same,GI50,U-251,> 100 µM (inactive)
same,GI50,UO-31,> 100 µM (inactive)
same,GI50,NCI-H226,> 100 µM (inactive)
same,GI50,Hs-578T,> 100 µM (inactive)
same,GI50,CAKI-1,> 100 µM (inactive)
same,GI50,SW-620,> 100 µM (inactive)
same,GI50,HT-29,> 100 µM (inactive)
same,GI50,NCI-H23,> 100 µM (inactive)
same,GI50,A549,> 100 µM (inactive)
same,GI50,IGROV-1,> 100 µM (inactive)
same,GI50,LOX IMVI,> 100 µM (inactive)
same,GI50,ACHN,> 100 µM (inactive)
same,GI50,SK-OV-3,> 100 µM (inactive)
same,GI50,KM12,> 100 µM (inactive)
same,GI50,SNB-19,> 100 µM (inactive)
same,GI50,A498,> 100 µM (inactive)
same,GI50,Malme-3M,> 100 µM (inactive)
same,GI50,MDA-MB-231,26.9 µM (inactive)
same,GI50,MDA-N,> 100 µM (inactive)
same,GI50,NCI/ADR-RES,> 100 µM (inactive)
same,GI50,SK-MEL-28,> 100 µM (inactive)
same,GI50,DU-145,> 100 µM (inactive)
same,GI50,RPMI-8226,> 100 µM (inactive)
same,GI50,HL-60,> 100 µM (inactive)
same,GI50,SK-MEL-2,> 100 µM (inactive)
same,GI50,HCT-15,> 100 µM
same,GI50,PC-3,> 100 µM (inactive)
same,GI50,786-0,> 100 µM (inactive)
same,GI50,M14,> 100 µM (inactive)
same,GI50,UACC-257,> 100 µM (inactive)
same,GI50,HOP-62,> 100 µM (inactive)
same,GI50,SF-268,> 100 µM (inactive)
same,GI50,BT-549,> 100 µM (inactive)
same,GI50,SN12C,> 100 µM (inactive)
same,GI50,MCF7,> 100 µM (inactive)
same,GI50,EKVX,> 100 µM (inactive)
same,GI50,NCI-H460,> 100 µM (inactive)
same,GI50,SF-295,> 100 µM (inactive)
same,GI50,SR,> 100 µM (inactive)
same,GI50,SF-539,> 100 µM (inactive)
same,GI50,TK-10,> 100 µM (inactive)
same,GI50,K562,> 100 µM (inactive)
same,GI50,OVCAR-4,> 100 µM (inactive)
